Assay results taken from article PMC4730251, “Cloning, Characterization and Expression Pattern Analysis of a Cytosolic Copper/Zinc Superoxide Dismutase (SaCSD1) in a Highly Salt Tolerant Mangrove (Sonneratia alba)” (International Journal of Molecular Sciences, 2015).

Biological target: T1, SaCSD1 (Sonneratia alba, UniProt A0A0U1X631)
T1 construct: gene SOD1
T1 sequence (A0A0U1X631 1-152): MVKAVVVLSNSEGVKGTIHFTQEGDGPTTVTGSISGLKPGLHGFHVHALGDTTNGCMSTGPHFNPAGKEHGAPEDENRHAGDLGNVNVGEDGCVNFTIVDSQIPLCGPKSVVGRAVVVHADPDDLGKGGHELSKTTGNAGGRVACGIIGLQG
Assay: SOD activity assay kit (WST-1 method)
Type: biochemical

SMILES: [O]O [superoxide]
- SOD activity assay kit (WST-1 method): Superoxide dismutase activity assay kit (WST-1 method) was used to detect the SOD activity
